In PubChem BioAssay AID179 (DTP/NCI, 2004) one finds EC50, IC50 and outcome data, which are given here for 48 compounds.

Where “and” joins values, the source holds several entries; their conditions need not be identical. Equal values may be shown once. Calls of active or inactive are those of the source.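 The calls were made as follows: active = compounds giving half or more protection of infected cells from virus-caused growth loss, again on retest; inactive = the rest.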 Where a SMILES comes first, the peptide text is derived from it. [ ]: non-standard residue; d: D form. The star is where a group is joined. ξ: configuration not given here. Boc = CC(C)(C)OC(=O)*; ξV = CC(C)C(N)C(=O)O; OBn = c1ccc(CO*)cc1 A value given as a limit tells only on which side of the number the result lay.

The subject of this test is CEM cells HIV-1 protection, formazan growth assay. Kind of test: NCI AIDS Antiviral Assay. The note with it: for IC50: measured here: growth of uninfected CEM cells. The essentials: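 Human CEM cells, uninfected and HIV-1-infected, exposed to five drug concentrations; growth measured by soluble formazan assay and scored as percent protection from infection, with protecting compounds retested.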

As usually defined, the EC50 is the midpoint of the concentration-response curve. What is called IC50 is the concentration needed to halve the response being measured. Consider `C[n+]1c2ccccc2n2c3ccccc3c(NCCCn3ccnc3)c(C#N)c21`, for which the EC50 is above 20 µM and the IC50 came out at 1.1 µM.
For the compound `O=C(/N=C(\c1ccc(F)cc1)c1ccsc1-n1cccc1)Nc1ccccc1`, the EC50 is above 200 µM and the IC50 came out at 4.9 µM.
Turning to `C=CCOC(=O)N(C)CC(OC(=O)C(C)(C)C)C1(c2ccc3c(c2)OCO3)C=CC(=O)C=C1` (stereo not drawn), the result was inactive.
Same read-out and setting: to `O=C1c2ccccc2C(C2c3ccccc3C(=O)c3ccccc32)c2ccccc21` belongs “inactive”.
Compound `CCN(CC)c1ccc2c(c1)Oc1cc(N(CC)CC)ccc1C2c1ccccc1C(=O)O` showed a concentration for a half-maximal effect (EC50) above 200 µM and an IC50 above 200 µM.
For the compound `CC1CC/C(=C\c2ccc(F)cc2)C2=C1C(c1ccc(F)cc1)n1c(s/c(=C\c3ccc(Cl)cc3)c1=O)=N2` (stereo not drawn), the outcome was inactive.
In the case of `COc1cccc(SSc2cccc(OC)c2OC)c1OC`, the EC50 was above 200 µM and the IC50 is 16.6 µM.
`CNC(=O)CCCNC(=O)CCCC(=O)OC`: the EC50 was above 200 µM and the half-inhibitory concentration (IC50) was above 200 µM.
On to `CC#CCCC1CCCCNC1=O` (stereo not drawn), for which the EC50 was above 138 µM and the half-maximal inhibitory concentration (IC50) was above 138 µM.
Consider `COc1ccccc1NC(=S)NN=C(C)c1cccc(C(C)=NNC(=S)Nc2ccccc2OC)n1`, for which the EC50 is above 200 µM and the half-maximal inhibitory concentration (IC50) is 34.7 µM.
With `CC(C)(c1ccccc1)c1ccc(Oc2ccc3c(c2)-c2nc-3nc3[nH]c(nc4nc(nc5[nH]c(n2)c2ccc(Oc6ccc(C(C)(C)c7ccccc7)cc6)cc52)-c2cc(Oc5ccc(C(C)(C)c6ccccc6)cc5)ccc2-4)c2ccc(Oc4ccc(C(C)(C)c5ccccc5)cc4)cc32)cc1`, the EC50 is above 2.63 µM and the IC50 is above 2.63 µM.
On to `CO[C@H]1/C=C/O[C@@]2(C)Oc3c(C)c(O)c4c(O)c(c(/C=N/N5CCN(C)CC5)c(O)c4c3C2=O)NC(=O)/C(C)=C\C=C\[C@H](C)[C@H](O)[C@@H](C)[C@@H](O)[C@@H](C)[C@H](OC(C)=O)[C@@H]1C`, for which the EC50 was above 151 µM and the concentration for half-maximal inhibition (IC50) is 93.3 µM.
Take `CCOC(=O)Cn1c(=O)cc(C)c2ccccc21`: the EC50 is above 200 µM and the IC50 is above 200 µM.
Regarding `CC(C)C(NC(=O)OC(C)(C)C)C(=O)NCC(=O)OCc1ccccc1` (stereo not drawn) (Boc-[ξV]-Gly-OBn), the EC50 was above 200 µM and the IC50 is 28.2 µM.
In the case of `CCSc1nc(=[N+]2CCCC2)ss1`, the result was inactive.
As for `O=C(O)c1cc(N=Nc2ccc(CCc3ccc(N=Nc4cc(C(=O)O)c(O)cc4O)cc3S(=O)(=O)O)c(S(=O)(=O)O)c2)c(O)cc1O`, the EC50 is 70.8 µM and the IC50 came to 135 µM.
Turning to `C=CCNC(=O)CN1NN=C(c2ccccc2)N1`, the EC50 was above 107 µM and the concentration for half-maximal inhibition (IC50) was determined as 93.3 µM.
For the compound `CCOC(=O)/C(O)=C(/C=N\C(=S)Nc1ccccc1Cl)C(=O)OCC`, the EC50 is above 200 µM and the 50% inhibitory concentration (IC50) is above 200 µM.
`NC1=C(Cl)C(=O)c2ccccc2C1=O` had a half-maximal effective concentration (EC50) above 200 µM.
Regarding `Cc1nc2ccccc2c(=O)n1NC(=S)Nc1cccc(Cl)c1`, the EC50 was above 20.9 µM and the 50% inhibitory concentration (IC50) was above 20.9 µM.
With `C1CSCC2(COC2)CS1`, the EC50 was above 1410 µM and the IC50 turned out to be 1320 µM.
Turning to `Cc1cc2c(C)n(Cc3ccccc3Cl)nc2c(C(=O)O)c1C`, the EC50 is above 759 µM and the IC50 amounted to 148 µM.
With `CC(=O)OC(C)(C)/C=C/C(=O)[C@](C)(O)[C@H]1[C@H](O)C[C@@]2(C)[C@@H]3CC=C4[C@@H](C[C@H](O)[C@H](O)C4(C)C)[C@]3(C)C(=O)C[C@]12C`, the EC50 is above 0.2 µM and the IC50 came to 0.0912 µM.
For `Nc1ncc(/C=C/CNC(=O)c2ccc[nH]2)[nH]1`, in that order: above 1070 µM and 155 µM.
For `O=C(OC1C=C=CS(=O)(=O)CC#C/C=C\1)c1cnc2ccccc2n1` (stereo not drawn), in that order: above 200 µM and 102 µM.
Regarding `CC1(Cl)CC2C(CC1Sc1nnnn1-c1ccccc1)C2(C)C` (stereo not drawn), the EC50 is above 20.9 µM and the IC50 was above 20.9 µM.
On to `Cc1nnc2n1-c1ccccc1C(=S)N1CSCC21` (stereo not drawn), for which the EC50 was above 200 µM and the IC50 was above 200 µM.
For `CCOC(=O)N1CCC2C(=C(C)C(C)C3=C2C(=O)c2ccccc2C3=O)C1` (stereo not drawn), the EC50 is above 100 µM and the IC50 is above 100 µM.
In the case of `O=C(O)Cn1c(=O)ccc2ccccc21`, the EC50 is above 200 µM and the 50% inhibitory concentration (IC50) is above 200 µM.
For the compound `O=[N+]([O-])c1cccc2nc3ccccc3c(NCCCNc3c4ccccc4nc4cccc([N+](=O)[O-])c34)c12`, the EC50 is above 200 µM and the half-inhibitory concentration (IC50) came out at 0.0631 µM.
On to `c1ccc(-c2c(-c3ccccc3)c2=NN(c2ccccc2)c2ccccc2)cc1`, for which the EC50 was above 200 µM and the IC50 came out at 11 µM.
Regarding `CCOC(=O)C(NC(=O)c1ccccc1)(Nc1ccc(S(=O)(=O)Nc2ncccn2)cc1)C(F)(F)F` (stereo not drawn), the EC50 is above 200 µM and the IC50 is above 200 µM.
On to `NNS(=O)(=O)c1ccc(OCC(=O)O)cc1`, for which the EC50 was above 200 µM and the IC50 worked out at 182 µM.
Take `CCCCCCCCCCCCCCCCCC(=O)OCC(CN(C)CCN(C)C)OC(=O)CCCCCCCCCCCCCCCCC` (stereo not drawn): the outcome was inactive.
Turning to `O=[N+]([O-])[O-].O=[N+]([O-])[O-].[Au].[Au].c1ccc([P-]c2ccccc2)cc1.c1ccc([P-]c2ccccc2)cc1`, the EC50 is above 4.27 µM and the IC50 was above 4.27 µM.
As to `OCCN1CC2CCCC1O2` (stereo not drawn), the EC50 is above 1580 µM and the IC50 was above 1580 µM.
In the case of `CC1(C)OC(=O)C(C#N)=C1/C=C\c1ccco1`, the EC50 was above 1100 µM and the IC50 was above 1100 µM.
For `O=C(c1ccccc1)C1C(C(=O)c2ccccc2)N1Cc1ccccc1` (stereo not drawn), the EC50 was above 200 µM; the half-maximal inhibitory concentration (IC50) is 60.3 µM and > 55 µM.
For the compound `C(=C/[PH+](c1ccccc1)c1ccccc1)/[PH+](c1ccccc1)c1ccccc1.C(=C/[PH+](c1ccccc1)c1ccccc1)/[PH+](c1ccccc1)c1ccccc1.C(=C/[PH+](c1ccccc1)c1ccccc1)/[PH+](c1ccccc1)c1ccccc1.[Pt]`, the EC50 is above 5.25 µM and the IC50 was determined as 3.24 µM.
Regarding `CC1=CCC(O)C=CC(C)C(O)C(C)C=C(C)C(=O)c2c(O)c(C)cc3c2C(=O)C(N)=C(NC(=O)/C=C\C=C/C=CC(C)C(O)CC1=O)C3=O` (stereo not drawn), the EC50 is above 182 µM and the IC50 came out at 97.7 µM.
For `CC1CC(C)(C)OC(c2ccco2)O1` (stereo not drawn), in that order: above 200 µM and above 200 µM.
On to `CC(O)C(NC(=O)c1ccccc1)C(=O)N(Cc1ccccc1)Cc1ccccc1` (stereo not drawn), for which the EC50 is above 17.8 µM and the IC50 is above 17.8 µM.
With `O=C1/C(=C/c2ccccc2Cl)CCc2ccccc21`, the EC50 was above 10 µM and the IC50 is above 10 µM.
With `CC(=O)N(CC1CCCN(C)C1)C12CC3CC(CC(C3)C1)C2` (stereo not drawn), the EC50 was above 117 µM and the IC50 was above 117 µM.
With `C=C=CP(=O)(c1ccccc1)c1ccccc1`, the EC50 is above 151 µM and the IC50 stood at 15.5 µM.
`CCc1c(C#N)c(=O)[nH]c(=O)n1CCN1CCN(C(=O)NCCCCCCNC(=O)N2CCN(CCn3c(CC)c(C#N)c(=O)[nH]c3=O)CC2)CC1`: the result was inactive.
Take `C[C@]12CC[C@H]3[C@@H](CCC4=CC(=O)C=C[C@@]43O)[C@@H]1CCC2=O`: the EC50 was above 200 µM and the concentration for half-maximal inhibition (IC50) is above 200 µM.
As to `C(=C1/CCCCC([n+]2ccccc2)=N1)/c1ccccc1`, the outcome was inactive.
